Experimental data: ChEMBL document CHEMBL1201862, “PubChem BioAssay data set” (2004)
Active and inactive are the calls of the source.

Assays:
[1] = HEp-2 cell cytotoxicity, dose response, cytotoxicity control for RSV inhibitor project, HTS (AID 2410); assay type: functional; details: human respiratory syncytial virus
BJ [2] = test: cytotoxicity toward BJ-TERT fibroblasts, dose response, cell-based, RAS-independent, luminescence (AID 1933); assay type: functional; details: Homo sapiens
BJ [3] = test: cells; assay type: functional, cell-based; details: Homo sapiens
[4] = cytotoxicity toward DRD oncogenic fibroblasts, dose response, cell-based, non-viral oncogenic, luminescence (AID 1934); assay type: functional; details: Homo sapiens
BJ [5] = test: cytotoxicity toward Ras-transformed BJeLR fibroblasts, dose response, cell-based, alamar blue fluorescence, cherrypicked samples (AID 2631); assay type: functional; details: Homo sapiens;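 also: confirmatory dose-response assay in RAS-dependent BJ fibroblasts engineered with TERT, LT and ST, with cytotoxicity read by fluorescence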
[6] = biological target: T1, High affinity choline transporter 1 (Homo sapiens, UniProt Q9GZV3); test: CHT inhibitors, dose response, cell-based, 5-point CRC, membrane potential dye (AID 504840); assay type: functional
T1 sequence (Q9GZV3 whole entry): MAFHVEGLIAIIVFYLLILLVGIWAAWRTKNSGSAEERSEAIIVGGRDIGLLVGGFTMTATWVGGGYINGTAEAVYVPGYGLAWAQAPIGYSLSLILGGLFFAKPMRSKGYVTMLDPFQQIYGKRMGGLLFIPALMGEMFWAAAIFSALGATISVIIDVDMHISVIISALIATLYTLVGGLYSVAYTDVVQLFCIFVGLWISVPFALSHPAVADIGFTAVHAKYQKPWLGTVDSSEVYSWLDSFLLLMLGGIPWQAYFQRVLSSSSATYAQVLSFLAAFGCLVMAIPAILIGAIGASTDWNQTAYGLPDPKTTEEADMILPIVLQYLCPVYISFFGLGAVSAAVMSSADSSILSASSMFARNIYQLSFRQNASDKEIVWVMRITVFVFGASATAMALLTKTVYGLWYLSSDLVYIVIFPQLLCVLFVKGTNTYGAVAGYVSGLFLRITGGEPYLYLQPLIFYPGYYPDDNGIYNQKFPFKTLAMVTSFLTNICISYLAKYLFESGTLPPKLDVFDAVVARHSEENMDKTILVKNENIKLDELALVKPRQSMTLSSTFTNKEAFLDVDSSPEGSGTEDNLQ

[7] = biological target: T1, High affinity choline transporter 1; test: CHT inhibitors, dose response, cell-based, 10-point CRC, membrane potential dye (AID 588401); assay type: functional;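 also: membrane potential dye fluorescence of choline-evoked depolarization via CHT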
HEK293 [8] = test: NOD1 signaling inhibitors, primary screen, cell-based, luminescence, uHTS (AID 1578); assay type: functional; details: Homo sapiens
HEK293 [9] = test: cells; assay type: functional, cell-based; details: Homo sapiens
HEK293 [10] = test: cells; assay type: functional, cell-based; details: Homo sapiens; remark: listed apart in the source
HEK293 [11] = test: NOD2 signaling inhibitors in MDP-stimulated cells, cell-based, uHTS, luminescence (AID 2001); assay type: functional; details: Homo sapiens
BJ [12] = test: cytotoxicity toward BJ-TERT-LT-ST fibroblasts, dose response, cell-based, RAS-independent, luminescence (AID 1935); assay type: functional; details: Homo sapiens;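 also: BJ fibroblasts immortalized with TERT plus LT and ST oncogenes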

IC50 [6] | IC50 [7] | SMILES | CC50 [1] | EC50 (BJ [2]) | EC50 (BJ [3]) | EC50 [4] | EC50 (BJ [5]) | EC50 (HEK293 [8]) | IC50 (HEK293 [9]) | IC50 (HEK293 [10]) | IC50 (HEK293 [11]) | EC50 (BJ [12])
– | – | C[C@@H]1C[C@H]2OC(=O)C3(CO3)[C@H]2[C@H](O)[C@]2(C)C(=O)C3OC3[C@@H]12 (stereo partly specified) | 15.9 µM (active) | 17 µM (active) | 14.3 µM (active) | 14.2 µM (active) | > 133 µM (inactive) | – | – | – | – | –
1.82 µM (active) | 0.946 µM (active) | Cc1ccc[n+](CC(=O)c2ccc(Cl)cc2)c1 | – | – | – | – | – | – | – | – | – | –
– | – | Cc1ccc(Nc2nc(N)nc(CCl)n2)c(C)c1 | – | < 0.12 µM (active) | 1.05 µM (active) | 0.423 µM (active) | 4.45 µM (active) | 13.9 µM (active) | 12.8 µM (active) | > 20 µM (inactive) | 10.5 µM (inactive) | 10.4 µM (active)
